{"source": "patent US10597430B2", "about": "“Chimeric gene for heterologous expression which encodes for peptides with antimicrobial activity” (Instituto de Investigaciones Agropecuarias, priority 2013, dated 2020)", "type_in_all_cases": "cell-based", "key": {"[1]": {"test_system": "Clavibacter michiganensis", "assay": "Growth inhibition assay at different concentrations of peptide rAp-S (specific growth rate, OD600)", "conditions": "control 0.072", "method": "(§1) Growth Inhibition Assays at Different Concentrations of Peptide rAp-S: The inoculation of 5 mL of LB was performed with 100 μL of bacteria (Xanthomona campestris and Clavibacter michiganensis), followed by overnight culturing. The absorbance was quantified at OD600. Once the Abs was quantified, dilutions were made to obtain an Abs to inoculate each tube with the same concentration of bacteria with an initial OD600 of 0.04. Different peptide concentrations were used. A final volume of 10 mL in a 50 mL tube was used. In addition, a control without peptide was used for each bacterium. The kinetics of the process was followed for 8 h from time zero, determining the Abs every 2 h. The data were logarithmically transformed for the exponential phase of kinetics, and a linear regression was performed on the transformed data. The slope of the regression is the specific growth rate of the bacteria: μ (h^−1)."}, "Xanthomona campestris": {"test_system": "Xanthomona campestris", "assay": "Growth inhibition assay at different concentrations of peptide rAp-S (specific growth rate, OD600)", "conditions": "control 0.385", "method": "as §1"}, "Trichoderma harzianum": {"test_system": "Trichoderma harzianum", "assay": "Antifungal growth assay on PDA agar supplemented with peptide (spore count, mycelium area)", "conditions": "respectively", "method": "(§2) a) Evaluation of Peptides obtained in E coli: Isolates from Botrytis cinerea, Fusarium oxysporum, Trichoderma harzianum and Alternaria spp. were treated with the purified fractions of the digested and non-digested peptides (pre-TEV/rAp-S and rAp-S) derived from the selected recombinant clone of E. coli (Example 3).\n(§3) The potential antifungal abilities of both peptides were evaluated by analysis of the growth patterns of these fungi on agar PDA (potato-dextrose) in Petri dishes supplemented with protein extracts at 500 μg/L (162 nM) and 250 μg/L (81 nM), respectively.\n(§4) The control growth assays were performed on PDA dishes without peptides. The growth patterns were evaluated according the amount of time required for the fungi to reach the dish walls in the control plates (10 days after inoculation in darkness at room temperature). Structural images of the fungi hyphae patterns were obtained using a Olympus® microscope (Center Valley, Pa., USA), and spores were counted using a Neubauer […] (Brand®, Wertheim, Germany) at 40×. The data were subjected to analyses of variance, and averages were separated by the least significant difference test (LSD) at the 5% level of significance using Statgraphics Centurion XV (Manμistics Inc., Rockville, Md., USA). Petri dishes containing grown fungi were scanned and digitalized for statistical processing. The area of the mycelia was quantified using Gel-Pro Analyzer 4.0 (Media Cybernetics, Minneapolis, Minn., USA), and surface values in pixels were transferred to Excel (Microsoft Corporation, USA) for analysis. The average value of the colored haloes was calculated using scanned images of five repetitions on the tenth day after inoculation. The collected data were subjected to variance analysis, and the averages separated by LSD at the 5% level of significance."}, "Alternaria sp": {"test_system": "Alternaria sp", "assay": "Antifungal growth assay on PDA agar supplemented with peptide (spore count, mycelium area)", "conditions": "respectively", "method": "as §2, §3, §4"}, "Botrytis cinerea": {"test_system": "Botrytis cinerea", "assay": "Antifungal growth assay on PDA agar supplemented with peptide (spore count, mycelium area)", "conditions": "respectively", "method": "as §2, §3, §4"}, "Fusarium oxysporum": {"test_system": "Fusarium oxysporum", "assay": "Antifungal growth assay on PDA agar supplemented with peptide (spore count, mycelium area)", "conditions": "respectively", "method": "as §2, §3, §4"}, "[2]": {"conditions": "PDA supplemented with pre-TEV/rAp-S 500 μg/L (162 nM) and rAp-S 250 μg/L (81 nM), 10 days after inoculation"}, "[3]": {"conditions": "PDA supplemented with pre-TEV/rAp-S 500 μg/L and rAp-S 250 μg/L, tenth day after inoculation"}}, "data": [{"substance": "rAp-S: recombinant version of antimicrobial peptide Ap-S, 31 amino acids MPVGIVIAPKKSPFTAKKPGPVLSGVKAGPG (SEQ ID No. 9), released by TEV protease digestion (listed as Argopecten purpuratus)", "values": [{"measurement": "Specific growth rate μ", "setting": "[1]; peptide 1 μg/L", "value": 0.070, "unit": "h⁻¹"}, {"measurement": "Specific growth rate μ", "setting": "[1]; peptide 10 μg/L", "value": 0.069, "unit": "h⁻¹"}, {"measurement": "Specific growth rate μ", "setting": "[1]; peptide 100 μg/L", "value": 0.075, "unit": "h⁻¹"}, {"measurement": "Specific growth rate μ", "setting": "[1]; peptide 1 mg/L", "value": 0.069, "unit": "h⁻¹"}, {"measurement": "Specific growth rate μ", "setting": "[1]; peptide 2 mg/L", "value": 0.069, "unit": "h⁻¹"}, {"measurement": "Specific growth rate μ", "setting": "[1]; peptide 3 mg/L", "value": 0.073, "unit": "h⁻¹"}, {"measurement": "Specific growth rate μ", "setting": "[1]; peptide 4 mg/L", "value": 0.066, "unit": "h⁻¹"}, {"measurement": "Specific growth rate μ", "setting": "[1]; peptide 12.5 mg/L", "value": 0.009, "unit": "h⁻¹"}, {"measurement": "Specific growth rate μ", "setting": "[1]; peptide 15.5 mg/L", "value": 0.003, "unit": "h⁻¹"}, {"measurement": "Specific growth rate μ", "setting": "Xanthomona campestris; peptide 1 μg/L", "value": 0.371, "unit": "h⁻¹"}, {"measurement": "Specific growth rate μ", "setting": "Xanthomona campestris; peptide 10 μg/L", "value": 0.375, "unit": "h⁻¹"}, {"measurement": "Specific growth rate μ", "setting": "Xanthomona campestris; peptide 100 μg/L", "value": 0.386, "unit": "h⁻¹"}, {"measurement": "Specific growth rate μ", "setting": "Xanthomona campestris; peptide 1 mg/L", "value": 0.329, "unit": "h⁻¹"}, {"measurement": "Specific growth rate μ", "setting": "Xanthomona campestris; peptide 2 mg/L", "value": 0.015, "unit": "h⁻¹"}, {"measurement": "Specific growth rate μ", "setting": "Xanthomona campestris; peptide 3 mg/L", "value": -0.012, "unit": "h⁻¹"}, {"measurement": "Specific growth rate μ", "setting": "Xanthomona campestris; peptide 4 mg/L", "value": -0.019, "unit": "h⁻¹"}, {"measurement": "Spore count, Average", "setting": "Trichoderma harzianum; [2]", "value": "5.0 × 10^6"}, {"measurement": "Central area of the mycelium, Average", "setting": "Trichoderma harzianum; [3]", "value": 85718, "unit": "pixeles"}, {"measurement": "Spore count, Average", "setting": "Alternaria sp; [2]", "value": 0}, {"measurement": "Central area of the mycelium, Average", "setting": "Alternaria sp; [3]", "value": 412403, "unit": "pixeles"}, {"measurement": "Spore count, Average", "setting": "Botrytis cinerea; [2]", "value": "1.02 × 10^6"}, {"measurement": "Central area of the mycelium, Average", "setting": "Botrytis cinerea; [3]", "value": 170781, "unit": "pixeles"}, {"measurement": "Spore count, Average", "setting": "Fusarium oxysporum; [2]", "value": "7.6 × 10^5"}, {"measurement": "Central area of the mycelium, Average", "setting": "Fusarium oxysporum; [3]", "value": 511699, "unit": "pixeles"}]}]}
